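These data come from cells grown in 96-well plates and exposed to compound for 48 hours at five concentrations. TGI: concentration producing complete growth inhibition.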
Legend:
Experiment in all cases: NCI anticancer screen, dose series, 48 h
M14 melanoma = test system: M14 melanoma
ACHN renal = test system: ACHN renal
SNB-19 CNS = test system: SNB-19 CNS
DU-145 prostate = test system: DU-145 prostate
MDA-N = test system: MDA-N
EKVX NSCLC = test system: EKVX NSCLC
KM12 colon = test system: KM12 colon
RPMI-8226 leukemia = test system: RPMI-8226 leukemia
IGROV1 ovarian = test system: IGROV1 ovarian
A498 renal = test system: A498 renal
OVCAR-3 ovarian = test system: OVCAR-3 ovarian

SMILES | TGI (M14 melanoma) [µM] | TGI (ACHN renal) [µM] | TGI (SNB-19 CNS) [µM] | TGI (DU-145 prostate) [µM] | TGI (MDA-N) [µM] | TGI (EKVX NSCLC) [µM] | TGI (KM12 colon) [µM] | TGI (RPMI-8226 leukemia) [µM] | TGI (IGROV1 ovarian) [µM] | TGI (A498 renal) [µM] | TGI (OVCAR-3 ovarian) [µM]
N#CC(C#N)=C1C(C#N)=C(N)NC12OCCO2 | > 100 | > 100 | > 100 | > 100 | > 100 | > 100 | > 100 | > 100 | > 100 | > 100 | 
NC(=S)N/N=C\c1ccc(OCc2cccc(COc3ccc(/C=N/NC(N)=S)cc3)n2)cc1 | > 100 | > 100 | > 100 | > 100 | > 100 | > 100 | > 100 | > 100 | > 100 | > 100 | > 100
COc1ccc(N(C)C(=O)N(C)c2ccc([N+](=O)[O-])cc2)cc1 | > 100 | > 100 | > 100 | > 100 | 24.2 | > 100 | 91.6 | > 100 | > 100 | > 100 | 84.2
CCOP(=O)(OCC)C(Nc1cccc(F)c1)c1ccccc1 (stereo not given) | > 100 | > 100 | > 100 | > 100 | > 100 | > 100 | > 100 | > 100 | > 100 | > 100 | > 100
COc1ccc(/C=c2\[nH]c3nc(=O)c(N4CCOCC4)c(N)n3c2=O)cc1 | > 100 | > 100 | > 100 | > 100 | > 100 | > 100 | > 100 | > 100 | > 100 | > 100 | 
Cc1ccc(C(=O)N/N=C(\N=Nc2cccc(Cl)c2)c2ccc(N(CCC#N)CCC#N)cc2C)cc1 | > 100 | > 100 | > 100 | > 100 | > 100 | > 100 | > 100 | > 100 | > 100 | > 100 | > 100
COc1cc(/C=C/C(=O)c2c(=O)o[nH][n+]2-c2ccccc2)ccc1[O-] | 9.64 | 6.17 | 17.4 | 5.72 | 6.25 | 15.9 | 8.77 | 5.55 | 9.66 | 20.2 | 4.82
Cn1nc2n(c1=O)CCCN2 |  | > 100 | > 100 | > 100 | > 100 | > 100 | > 100 | > 100 | > 100 | > 100 | > 100

From PubChem BioAssay (NCI)
